Assay results from patent US20240400555A1 (Initial Therapeutics, Inc., priority 2023, published 2024).
Blank lines part the entries; values can stand above or below the compound they belong to.

How the values were obtained:
c-MYC [1] = assay: In Vitro Translation Dose-Response Curves (In Vitro Multiple Point Translation Screening Assay); assay type: biochemical; conditions: IVT dose response curve
Description: HeLa S3 cell Preparation. HeLa S3 cells were grown essentially as described in Mikami 2010. Frozen aliquots of banked HeLa cells (ATCC #CCL-2.2) were thawed and diluted into agitated suspension culture in CD293 medium supplemented with 10% HI FBS, 1× GlutaMAX, and 1× Pen/Strep. Cells were expanded in suspension over 10 passages to inoculate 3×20 L wave bag bioreactors and cultured for approximately 48 h to a final density of 1.81×10^6 viable cells per mL. Cells were pelleted by centrifugation at 2500 RCF for 15 min at 4° C. Two 1 L pellets were combined in 32 sets and re-pelleted in 50 ml conical tubes, resulting in 32×10 mL cell pellets weighing approximately 10 g each. Final pellets were snap frozen in liquid nitrogen and stored at −80° C. (cell culture, harvesting, and cryo-preservation completed at LakePharma). Cell pellets were subsequently thawed at RT, resuspended in 15 mL wash buffer (35 mM HEPES-KOH, pH 7.5, 140 mM NaCl, and 11 mM glucose), then re-pelleted by centrifugation at 2500 RCF for 10 min at 4° C. The supernatant was discarded and the wash step repeated 2×. The pellets were resuspended each pellet in 10 mL in hypertonic extraction buffer (20 mM HEPES-KOH, pH 7.5, 45 mM potassium acetate, 45 mM KCl, 1.8 mM magnesium acetate, and 1 mM TCEP added directly before use). The cell suspension was transferred to a cell disruption vessel (Parr Instrument Company, model 4636, 1850 mL capacity) and incubated for 15 min on ice, then sealed under nitrogen (200 PSI) for 1.5 h. The cell homogenates were released through a needle valve and collected on ice, then diluted with 1/29 volume high potassium buffer (20 mM HEPES-KOH, pH 7.5, 945 mM potassium acetate, 945 mM KCl, 1.8 mM magnesium acetate, and 1 mM TCEP). The cell homogenates were then clarified by centrifugation at 2500 RCF for 10 min at 4° C. and the supernatant collected. The clarification step was repeated 3×. The resulting cell extracts (675 mL, 2.5 mg/mL total protein) were aliquoted and flash frozen in liquid nitrogen and stored at −80° C. until use.
Translation reactions were incubated for 20 min at 30° C. Nanoluciferase luminescence was measured by combining 2 μL of IVT reaction with 20 μL of prepared reagent from the Nanoglo assay kit (Promega). A negative control of 0.5% DMSO and positive control of 50 μM puromycin were used to define to assay window.
Dose response curve IVTs were performed similar to the single point IVT screening with the following changes. The desired concentration curves were plated into 384 well plates from DMSO stocks using a Tecan D300e dispenser. […] After reaction incubation and luminescence measurement, dose-response curves were fit to the data using Prism (Graphpad) or Collaborative Drug Discovery analysis programs.

c-MYC [2] = assay: Cellular c-MYC Alpha Screen; assay type: cell-based; conditions: Homo sapiens; c-MYC alpha screen dose response, HCT-116 reporter cells, 24 h; read-out: Geomean pIC50 (converted)
Description: HCT-116 Firefly-luciferase reporter cells (BPS bioscience) were seeded in 96-well tissue-culture treated sterile plates (Greiner Bio-One) at 7.5e4 cells/mL in 100 μL complete growth media (McCoy's 5A+10% FBS, +1% Pen-Strep, +1% G418). Cells were incubated at 37° C. with 5% CO2 for 24 h then treated with 3× compound solution in 50 μL complete growth media for a final volume of 150 μL per well with 0.2% DMSO. After 24 h incubation at 37° C. with 5% CO2, plates were allowed to equilibrate to RT for 20 min; the media was then aspirated, and the plate washed once with 200 μL 1×PBS. Cells were then lysed by addition of 1× Alpha Screen lysis buffer (50 μL) from the Perkin Elmer alpha Screen c-MYC detection kit (Part number 6760611C). The lysate is then transferred to ice and advanced to the Alpha Screen detection assay or sealed with adhesive foil and stored at −80° C. for up to 2 weeks before use.
The alpha screen detection assay was then performed as per the vendors instructions. Briefly the acceptor bead mix was prepared as per vendors instructions. 30 ul of the cell lysate is transferred to a 96-well white assay plate. 15 ul of the acceptor mix was added to each well and incubated in the dark for at least one hour. Then the donor bead mix was prepared as per vendors instructions and 15 ul of this was added to the assay plate. The plate was then incubated at RT for one hour in the dark. The plate was then read in the SpectraMax i3x plate reader (Molecular Devices) using the alpha screen module (excitation wavelength 680 emission wavelength 615) and analyzed using GraphPad Prism 9 software.

[3] = system: HCT-116 Firefly-luciferase reporter cells; assay: Cellular c-MYC Reporter Assay; assay type: cell-based; conditions: Homo sapiens, HCT-116 Firefly-luciferase reporter cells, 24 h; for EC50: HCT-116, 24 h, read-out: Geomean pEC50 (converted)
Method in brief: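 Compound exposure lasted 24 h at 37 °C, 5% CO2, in complete McCoy's 5A medium containing 0.2% DMSO, beginning 4–6 h post-seeding (5e4 cells/mL). Firefly luciferase signal measured by luminescence after 10 min ONE-Glo development at room temperature.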

tumor growth = conditions: mice; cited from earlier work
MM cell = conditions: in vitro; cited from earlier work
xenografts of human MM = conditions: in vivo; cited from earlier work
murine models of MM = conditions: three murine models; cited from earlier work
[4] = system: human lung cancer cell lines (H23 and H292); conditions: cited from earlier work
[5] = system: NB4 cells and Nalm-6 cells; conditions: APL-derived NB4 cells and ALL-derived Nalm-6 cells; cited from earlier work
[6] = system: prostate cancer cell lines PC-3 and 22 Rv1; conditions: cited from earlier work

Geomean pIC50 (c-MYC [1]): 6.0 (n = 4)
IC50 (c-MYC [2]): 158 nM
Structure (SMILES): Cc1cccc2ccnc(N(C(=O)c3ccc(-n4nnc5cccnc54)cc3)[C@@H]3CCCNC3)c12 [Example 50, (R)-4-(3H-[1,2,3]triazolo[4,5-b]pyridin-3-yl)-N-(8-methylisoquinolin-1-yl)-N-(piperidin-3-yl)benzamide]

Geomean pIC50 (c-MYC [1]): 4.8 (n = 2)
IC50 (c-MYC [2]): 1000 nM
EC50 [3]: 251 nM
Structure (SMILES): Cc1cccc2ccnc(N(C(=O)c3ccc(Nc4ncccn4)cc3)[C@@H]3CCCNC3)c12 [Example 51, (R)-N-(8-methylisoquinolin-1-yl)-N-(piperidin-3-yl)-4-(pyrimidin-2-ylamino)benzamide]

Structure (SMILES): Cn1nc(C(F)(F)F)cc1-c1ccc(OCc2ccc(Cl)cc2)c(-c2cc(C(F)(F)F)cc(C(F)(F)F)c2)c1O [MYCi361]
in vivo tumor growth (tumor growth): suppressed in vivo tumor growth in mice

Geomean pIC50 (c-MYC [1]): 4.70 (n = 2)
Structure (SMILES): Cc1cccc2ccnc(N(C(=O)c3ccc(-n4ccnn4)cc3)[C@@H]3CCCNC3)c12 [Example 54, (R)-N-(8-methylisoquinolin-1-yl)-N-(piperidin-3-yl)-4-(1H-1,2,3-triazol-1-yl)benzamide]

Structure (SMILES): O=C(c1cc(Cc2n[nH]c(=O)c3ccccc23)ccc1F)N1CCN(C(=O)C2CC2)CC1 [olaparib]
MM cell viability (MM cell): impaired MM cell viability in vitro
efficacy against xenografts of human MM (xenografts of human MM): effective against in vivo xenografts of human MM

IC50 (c-MYC [2]): 398 nM
IC50 ([3]; untitled table following Table 8a, read-out: pIC50 (converted)): 525 nM
Structure (SMILES): Cc1cc(C2CCN(C(=O)N(c3nccc4cccc(C)c34)[C@@H]3CCCNC3)CC2)on1 [Example 243, (R)—N-(8-methylisoquinolin-1-yl)-4-(3-methylisoxazol-5-yl)-N-(piperidin-3-yl)piperidine-1-carboxamide]

Structure (SMILES): Cc1sc2c(c1C)C(c1ccc(Cl)cc1)=N[C@@H](CC(=O)OC(C)(C)C)c1nnc(C)n1-2 [JQ1]
efficacy in murine models of MM (murine models of MM): efficacious in three murine models of MM

Structure (SMILES): CCc1ccc(O)c(CN(C)Cc2cc(CC)ccc2O)c1 [EMD, N, N-bis(5-ethyl-2-hydroxybenzyl) methylamine]
cytotoxicity toward human lung cancer cell lines [4]: strong cytotoxicity

Structure (SMILES): CCc1ccc(/C=C2/SC(=S)NC2=O)cc1 [Compound 10058-F4]
viability of leukemia cells [5]: reduced viability

Structure (SMILES): C=CCc1ccc(O)c(-c2ccc(O)c(CC=C)c2)c1 [Honokiol]
anti-cancer activity against prostate cancer cell lines [6]: significant anti-cancer activity
levels of total and/or phosphorylated c-MYC protein and its mRNA expression [6]: marked decrease

Geomean pIC50 (c-MYC [1]): 4.6 (n = 2)
EC50 [3]: 257 nM
Structure (SMILES): Cc1cccc2ccnc(N(C(=O)c3ccc(-n4c(C)nc5ccccc54)cc3)[C@@H]3CCCNC3)c12 [Example 57, (R)-4-(2-methyl-1H-benzo[d]imidazol-1-yl)-N-(8-methylisoquinolin-1-yl)-N-(piperidin-3-yl)benzamide]
